Experimental findings from ChEMBL document CHEMBL1201862, “PubChem BioAssay data set” (2004) are described below.

Among the test systems are A549; DU-145; HCT-116; HCT-15; HT-29; K562; MDA-MB-231; MDA-MB-435; MOLT-4; Malme-3M; OVCAR-3; OVCAR-8; SF-268; SF-539; SK-MEL-2; SK-OV-3; SN12C; SW-620; RXF 393; A498.
Common to all, as to test: NCI anticancer screen, dose series, 48 h

SMILES strings stand for the structures.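 Where inhibition never reached the appropriate level, the endpoint shown equals the highest concentration tested. Otherwise, values were interpolated linearly from a five-concentration, 48-hour dose response in 96-well plates. GI50 marks 50% less growth.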 Active and inactive are the calls of the source. Cut-off read from the data, not from the text of the source: active = GI50 up to about 1.1 µM and inactive = higher. Peptide text beside a SMILES is read from it. * marks the point of attachment. Trt = c1ccc(C(c2ccccc2)(c2ccccc2)*)cc1; Cbz = O=C(OCc1ccccc1)*

With `CCOC(=O)N(C)C(=C(F)F)C(F)(F)F`, the GI50 in the experiment with A549 was 29 µM (inactive); in the experiment on DU-145 it was 33.2 µM (inactive); in the experiment with HCT-116, 20.4 µM (inactive); in the experiment with HCT-15 it was 16.3 µM; in the experiment with HT-29, 27 µM (inactive); in the experiment with K562 it was 22.1 µM (inactive). Further, the GI50 with MDA-MB-231 was 28.5 µM (inactive); in the experiment on MDA-MB-435, 22.8 µM (inactive); in the experiment with MOLT-4, 21.7 µM (inactive); in the experiment on Malme-3M, 14.6 µM (inactive); in the experiment on OVCAR-3, 36 µM (inactive); in the experiment on OVCAR-8, 23.8 µM (inactive). In addition, the GI50 in the experiment with SF-268 was 25.2 µM (inactive); in the experiment with SF-539, 24.5 µM (inactive); with SK-MEL-2, 16 µM (inactive); with SK-OV-3 it was 36 µM (inactive); in the experiment on SN12C it was > 10 µM (inactive); in the experiment on SW-620, 21.2 µM (inactive).

With `O=C(c1ccccc1)c1c(C(F)(F)F)[n+]([O-])c2cc(Cl)c(Cl)cc2[n+]1[O-]`, the GI50 in the experiment on A549 is 0.736 µM (active); with DU-145, 0.45 µM (active); in the experiment with HCT-116, 0.528 µM (active); in the experiment with HCT-15, 0.535 µM; with HT-29 it was 0.473 µM (active); in the experiment on K562, 2.24 µM (inactive). The GI50 in the experiment on MDA-MB-231 is 0.229 µM (active); in the experiment on MDA-MB-435 it was 1.41 µM (inactive); in the experiment on MOLT-4 it was 0.643 µM (active); with Malme-3M it was 1.72 µM (inactive); in the experiment on OVCAR-3, 0.403 µM (active); in the experiment on OVCAR-8, 2.65 µM (inactive). Besides, the GI50 with RXF 393 is 1.82 µM (inactive); in the experiment on SF-268, 0.671 µM (active); in the experiment with SF-539, 1.5 µM (inactive); with SK-MEL-2, 3.32 µM (inactive); in the experiment with SK-OV-3, 4.8 µM (inactive); in the experiment with SN12C it was 0.658 µM (active). The GI50 in the experiment on SW-620 was 0.619 µM (active).

Regarding `COC1CC(OC2C(C)OC(OC3C(C)OC(OC4C(O)CC(O[C@H]5CC[C@@]6(C)C(=CC[C@]7(O)[C@@H]6C[C@@H](OC(=O)/C=C/c6ccccc6)[C@@]6(C)[C@]7(O)CC[C@@]6(O)C(C)=O)C5)OC4C)CC3OC)CC2OC)OC(C)C1O` (stereo partly specified), the GI50 was > 6.25 µM (inactive) in the experiment with A549; > 6.25 µM (inactive) with DU-145; > 6.25 µM (inactive) with HCT-116; more than 6.25 µM in the experiment on HCT-15; > 6.25 µM (inactive) in the experiment with HT-29; > 6.25 µM (inactive) in the experiment on K562. The GI50 with MDA-MB-231, in the experiment on MDA-MB-435, in the experiment on MOLT-4, with Malme-3M, in the experiment on OVCAR-3 and in the experiment on OVCAR-8 was > 6.25 µM (inactive) in each case. Moreover, the GI50 in the experiment with SF-268, in the experiment on SF-539, in the experiment on SK-MEL-2, with SK-OV-3, in the experiment on SN12C and in the experiment with SW-620 was > 6.25 µM (inactive) each time.

Turning to `CC(CC(=O)N1C2CC3CCC2(CS1(=O)=O)C3(C)C)[Si](C)(C)C` (stereo unspecified), the GI50 in the experiment with A549 was > 100 µM (inactive); in the experiment with DU-145 it was > 100 µM (inactive); with HCT-116, > 100 µM (inactive); with HCT-15, more than 100 µM; in the experiment on HT-29, > 100 µM (inactive); in the experiment on K562, > 100 µM (inactive). Also, the GI50 in the experiment with MDA-MB-231, in the experiment on MDA-MB-435, in the experiment on MOLT-4, in the experiment on Malme-3M, with OVCAR-3 and in the experiment with OVCAR-8 was > 100 µM (inactive) throughout. Also, the GI50 in the experiment on RXF 393, with SF-268, in the experiment on SF-539, in the experiment with SN12C and in the experiment with SW-620 was > 100 µM (inactive) in each case.

`CC1(O)CCC(C(C)(C)O)CC1` (stereo unspecified) [TERPIN]: the GI50 in the experiment on A498 was > 100 µM (inactive); with A549, > 100 µM (inactive); in the experiment on DU-145, > 100 µM (inactive); with HCT-116, > 100 µM (inactive); in the experiment with HCT-15 it was more than 100 µM; with HT-29, > 100 µM (inactive). Also, the GI50 in the experiment with K562, in the experiment with MDA-MB-231, in the experiment with MDA-MB-435, with MOLT-4, in the experiment with OVCAR-3 and in the experiment with OVCAR-8 was > 100 µM (inactive) each time. The GI50 in the experiment on SF-268, with SF-539, in the experiment with SK-MEL-2, with SK-OV-3, with SN12C and in the experiment with SW-620 was > 100 µM (inactive) in each case.

Take `Cc1ccc(S(=O)(=O)C2=Cc3ccccc3C2(O)c2ccccc2)cc1` (stereo unspecified): the GI50 with A498 was > 10 µM (inactive); in the experiment on A549, 32.2 µM (inactive); with DU-145, 34.8 µM (inactive); with HCT-116, 33.3 µM (inactive); with HCT-15, 32.7 µM; with HT-29, 19.7 µM (inactive). In addition, the GI50 was 25.1 µM (inactive) in the experiment on K562; 17.7 µM (inactive) with MDA-MB-231; 30.8 µM (inactive) in the experiment with MDA-MB-435; 29.2 µM (inactive) in the experiment with MOLT-4; 22.8 µM (inactive) with OVCAR-8; 27.2 µM (inactive) in the experiment on SF-268. In addition, the GI50 in the experiment on SF-539 is 24 µM (inactive); in the experiment on SK-MEL-2, 15.4 µM (inactive); with SK-OV-3, 29.3 µM (inactive); with SN12C, 17.4 µM (inactive); in the experiment on SW-620, 29.8 µM (inactive).

Turning to `COC(=O)C(CO)NC(=O)C(CSC(c1ccccc1)(c1ccccc1)c1ccccc1)NC(=O)OCc1ccccc1` (stereo unspecified) (Cbz-Cys(Trt)-Ser-OMe; configuration not given here), the GI50 in the experiment with A549 is 13.4 µM (inactive); in the experiment with DU-145, 19.1 µM (inactive); in the experiment with HCT-116, 12.3 µM (inactive); in the experiment on HCT-15, 19.2 µM; in the experiment with HT-29, 11.4 µM (inactive); in the experiment on K562, 15.3 µM (inactive). In addition, the GI50 in the experiment with MDA-MB-231 was 13.8 µM (inactive); in the experiment with MDA-MB-435, 15.2 µM (inactive); in the experiment with MOLT-4, 0.61 µM (active); in the experiment with Malme-3M, 14.5 µM (inactive); in the experiment with OVCAR-3, 13.6 µM (inactive); in the experiment with OVCAR-8, 14.5 µM (inactive). For the same compound, the GI50 in the experiment on RXF 393 is 8.91 µM (inactive); with SF-268, 17.7 µM (inactive); in the experiment with SF-539 it was 12.1 µM (inactive); in the experiment on SK-MEL-2, 16.9 µM (inactive); in the experiment with SK-OV-3, 24.6 µM (inactive); in the experiment with SN12C, 13.3 µM (inactive). For the same compound, the GI50 with SW-620 is 15.5 µM (inactive).

As to `C=C1C(C[C@@H]2O[C@H]3C[C@H]4O[C@@]5(C[C@@H]6O[C@]7(C[C@H](C)[C@@H]8O[C@@H]9CC(C(O)CO)O[C@@H]9C[C@@H]8O7)C[C@H](C)[C@@H]6O5)C[C@H]4O[C@H]3[C@H](C)[C@H]2O)O[C@@H](CC[C@@H]2O[C@@H](CC[C@@]34CC5O[C@H]6C(O[C@H]7CC[C@H](CC(=O)OC)O[C@@H]7[C@@H]6O3)[C@H]5O4)CC2=C)C[C@H]1C` (stereo partly specified), the GI50 was 0.000108 µM (active) in the experiment on A549; < 0.0001 µM (active) in the experiment on DU-145; < 0.0001 µM (active) in the experiment with HCT-116; 0.000258 µM in the experiment on HCT-15; < 0.0001 µM (active) in the experiment on K562; 0.00632 µM (active) in the experiment with MDA-MB-231. In addition, the GI50 in the experiment on MDA-MB-435 was < 0.0001 µM (active); in the experiment with MOLT-4, 0.000146 µM (active); in the experiment with OVCAR-3 it was < 0.0001 µM (active); in the experiment on OVCAR-8, 0.000209 µM (active); in the experiment on RXF 393, < 0.0001 µM (active); in the experiment on SF-268 it was 0.000184 µM (active). In addition, the GI50 with SK-OV-3 was 0.000243 µM (active); in the experiment on SN12C, 0.000211 µM (active); with SW-620, < 0.0001 µM (active).
